Results from US10160986B2, “Chemoenzymatic synthesis of heparin and heparan sulfate analogs” (The Regents of the University of California, priority 2011, dated 2018).

Assays:
[1] = system: His6-PmHS2; assay: GlcNAcT donor substrate specificity of His6-PmHS2 (Example 12); assay type: biochemical, Pasteurella multocida; conditions: acceptor GlcAβ2AA 1 mM, UDP-sugar 1 mM, MnCl2 10 mM, PmHS2 1.1 μg μl^−1, 24 h, 37° C.
Method: (§1) PmHS2, KfiA, and related fusion proteins were expressed, purified, and characterized as described in Example 1. Reactions with UDP-sugars were carried out in duplicate at 37° C. in MES (100 mM, pH 6.5) containing UDP-GlcNAc or one of its derivatives (1 mM), GlcAβ2AA (1 mM), MnCl2 (10 mM) and KfiA (2.8 μg μl^−1) or PmHS2 (1.1 μg μl^−1) for 24 h. The reaction mixtures were stopped by adding ice-cold 10% (v/v) acetonitrile to make 100-fold dilutions and the mixtures were analyzed by HPLC as described for the pH profile.
(§2) Substrate specificity of the GlcNAcT activities of MBP-KfiA-his6 and his6-PmHS2. […] The reactions were easily analyzed by high performance liquid chromatography (HPLC) equipped with a fluorescence detector using an excitation wavelength of 315 nm and an emission wavelength of 400 nm to determine the ratio of the fluorescent disaccharide product formed and the fluorescent GlcAβ2AA acceptor.

[2] = system: PmHS2; assay: Small-scale PmHS2 donor substrate test by TLC; assay type: biochemical, Pasteurella multocida; conditions: GlcAβ2AAMe 10 mM, donor 15 mM, MgCl2 10 mM, PmHS2 0.5 mg/mL, pH 7.5, 37° C., 12 hr
Method: Prior to applying the one-pot three-enzyme system shown in FIG. 16 to the preparative-scale synthesis of the disaccharides, UDP-GlcNAc and derivatives F17-1-F17-12 were tested as donor substrates for PmHS2 in small-scale reaction containing Tris-HCl buffer (100 mM, pH 7.5), GlcAβ2AAMe (10 mM), UDP-GlcNAc or a derivative (15 mM), MgCl2 (10 mM), and PmHS2 (0.5 mg/mL). The reactions were carried out at 37° C. for 12 hr and analyzed by thin layer chromatography (TLC).

[3] = system: T1, MBP-KfiA-His6 (Escherichia coli); assay: GlcNAcT donor substrate specificity of MBP-KfiA-His6 (Example 12); assay type: biochemical, E. coli; conditions: acceptor GlcAβ2AA 1 mM, UDP-sugar 1 mM, MnCl2 10 mM, KfiA 2.8 μg μl^−1, 24 h, 37° C.
T1 construct: made in house; host or cells: E. coli BL21(DE3) co-expressing chaperone plasmid pGro7
Method: as §1, §2

Structure (SMILES) | donor substrate for the α1-4GlcNAcT activity of His6-PmHS2 [1] | donor substrate for PmHS2 [2] | donor substrate for MBP-KfiA-His6 [3]
CC(=O)N[C@H]1[C@@H](OP(=O)(O)OP(=O)(O)OC[C@H]2O[C@@H](n3ccc(=O)[nH]c3=O)[C@H](O)[C@@H]2O)O[C@H](CNC(=O)CO)[C@@H](O)[C@@H]1O [Compound F17-9, Uridine 5′-diphospho-2-acetamido-6-hydroxyacetamido-2,6-dideoxy-α-D-glucopyranoside] | tolerable donor substrates for His6-PmHS2 | tolerable donor substrates | not for MBPKfiA-His6
CC(=O)N[C@H]1[C@@H](OP(=O)(O)OP(=O)(O)OC[C@H]2O[C@@H](n3ccc(=O)[nH]c3=O)[C@H](O)[C@@H]2O)O[C@H](COS(=O)(=O)O)[C@@H](O)[C@@H]1O [Compound F17-12, Uridine 5′-diphospho-2-acetamido-2-deoxy-6-O-sulfo-α-D-glucopyranoside] | block the activities of both | did not serve as donor substrates | –
CC(=O)NC1C(OP(=O)(O)OP(=O)(O)OCC2OC(n3ccc(=O)[nH]c3=O)C(O)C2O)OC(CNC(=O)CN=[N+]=[N-])C(O)C1O [Compound F17-11, Uridine 5′-diphospho-2-acetamido-6-azidoacetamido-2,6-dideoxy-α-D-glucopyranoside] | tolerable donor substrates for His6-PmHS2 | did not serve as donor substrates | not for MBPKfiA-His6
CC(=O)NC1C(OP(=O)(O)OP(=O)(O)OCC2OC(n3ccc(=O)[nH]c3=O)C(O)C2O)OC(CNC(=O)Cc2ccccc2)C(O)C1O [Compound 33-14, Uridine 5′-diphospho-2-acetamido-6-phenylacetamido-2,6-dideoxy-α-D-glucopyranoside] | not suitable donor substrates | – | not suitable donor substrates
CC(=O)NC1C(OP(=O)(O)OP(=O)(O)OCC2OC(n3ccc(=O)[nH]c3=O)C(O)C2O)OC(CN)C(O)C1O [Compound F17-10, Uridine 5′-diphospho-2-acetamido-6-amino-2,6-dideoxy-α-D-glucopyranoside] | tolerable donor substrates for His6-PmHS2 | did not serve as donor substrates | not for MBPKfiA-His6
O=c1ccn(C2OC(COP(=O)(O)OP(=O)(O)OC3OC(CO)C(O)C(O)C3F)C(O)C2O)c(=O)[nH]1 [Compound 33-23, Uridine 5′-diphospho-2-fluoro-2-deoxy-α-D-mannopyranoside] | not tolerable substrate | – | not tolerable substrate
NC1C(OP(=O)(O)OP(=O)(O)OCC2OC(n3ccc(=O)[nH]c3=O)C(O)C2O)OC(CO)C(O)C1O [Compound F17-5, Uridine 5′-diphospho-2-amino-2-deoxy-α-D-glucopyranoside] | not acceptable donor substrates | did not serve as donor substrates | not acceptable donor substrates
[N-]=[N+]=N[C@@H]1[C@@H](OP(=O)(O)OP(=O)(O)OC[C@H]2O[C@@H](n3ccc(=O)[nH]c3=O)[C@H](O)[C@@H]2O)O[C@H](CO)[C@@H](O)[C@@H]1O [Compound 33-21, Uridine 5′-diphospho-2-azido-2-deoxy-α-D-mannopyranoside] | not tolerable substrate | – | not tolerable substrate
CC(=O)NC1C(OP(=O)(O)OP(=O)(O)OCC2OC(n3ccc(=O)[nH]c3=O)C(O)C2O)OC(CNC(=O)Cc2ccc(-c3ccccc3)cc2)C(O)C1O [Compound 33-15, Uridine 5′-diphospho-2-acetamido-6-(1,1′-biphenyl-4-yl)-acetamido-2,6-dideoxy-α-D-glucopyranoside] | not suitable donor substrates | – | not suitable donor substrates
O=C(Cc1ccc(-c2ccccc2)cc1)N[C@H]1[C@@H](OP(=O)(O)OP(=O)(O)OC[C@H]2O[C@@H](n3ccc(=O)[nH]c3=O)[C@H](O)[C@@H]2O)O[C@H](CO)[C@@H](O)[C@@H]1O [Compound 33-6, Uridine 5′-diphospho-2-(1,1′-biphenyl-4-yl)acetamido-2-deoxy-α-D-glucopyranoside] | not suitable donor substrates | – | not suitable donor substrates
O=C(Cc1ccccc1)NC1C(OP(=O)(O)OP(=O)(O)OCC2OC(n3ccc(=O)[nH]c3=O)C(O)C2O)OC(CO)C(O)C1O [Compound 33-5, Uridine 5′-diphospho-2-phenylacetamido-2-deoxy-α-D-glucopyranoside] | tolerable donor substrates for His6-PmHS2 | – | not for MBPKfiA-His6
[N-]=[N+]=N[C@H]1[C@@H](OP(=O)(O)OP(=O)(O)OC[C@H]2O[C@@H](n3ccc(=O)[nH]c3=O)[C@H](O)[C@@H]2O)O[C@H](CO)[C@@H](O)[C@@H]1O [Compound F17-6, Uridine 5′-diphospho-2-azido-2-deoxy-α-D-glucopyranoside] | not acceptable donor substrates | did not serve as donor substrates | not acceptable donor substrates
CC(=O)N[C@@H]1[C@@H](OP(=O)(O)OP(=O)(O)OC[C@H]2O[C@@H](n3ccc(=O)[nH]c3=O)[C@H](O)[C@@H]2O)O[C@H](CO)[C@@H](O)[C@@H]1O [Compound 33-20, Uridine 5′-diphospho-2-acetamido-2-deoxy-α-D-mannopyranoside] | not tolerable substrate | – | not tolerable substrate
CC(=O)N[C@H]1[C@@H](OP(=O)(O)OP(=O)(O)OC[C@H]2O[C@@H](n3ccc(=O)[nH]c3=O)[C@H](O)[C@@H]2O)O[C@H](CO)[C@H](O)[C@@H]1O [Compound 33-18, uridine 5′-diphospho-2-acetamido-2-deoxy-α-D-glacopyranoside] | tolerable donor substrates for His6-PmHS2 | – | not for MBPKfiA-His6
O=c1ccn([C@@H]2O[C@H](COP(=O)(O)OP(=O)(O)O[C@H]3O[C@H](CO)[C@@H](O)[C@H](O)[C@H]3NS(=O)(=O)O)[C@@H](O)[C@H]2O)c(=O)[nH]1 [Compound F17-7, Uridine 5′-diphospho-2-sulfoamino-2-deoxy-α-D-glucopyranoside] | block the activities of both | did not serve as donor substrates | –
